Reference: PubChem BioAssay (NCI)
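Exposure lasted 48 hours, with cells grown in 96-well plates and compounds tested at five concentrations. GI50 marks 50% less growth. TGI denotes the concentration required for complete inhibition of growth.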

How the values were obtained:
Assay in all cases: growth of human tumour cells (NCI), 48 h
NCI-H522 lung = test system: NCI-H522 lung
786-0 renal = test system: 786-0 renal
SW-620 colon = test system: SW-620 colon
SF-295 CNS = test system: SF-295 CNS
U251 CNS = test system: U251 CNS
SR leukemia = test system: SR leukemia
UACC-257 melanoma = test system: UACC-257 melanoma
RXF 393 renal = test system: RXF 393 renal
CCRF-CEM leukemia = test system: CCRF-CEM leukemia
KM12 colon = test system: KM12 colon

Compound	GI50 (NCI-H522 lung)	TGI (NCI-H522 lung)	GI50 (786-0 renal)	TGI (786-0 renal)	GI50 (SW-620 colon)	TGI (SW-620 colon)	GI50 (SF-295 CNS)	TGI (SF-295 CNS)	GI50 (U251 CNS)	TGI (U251 CNS)	GI50 (SR leukemia)	TGI (SR leukemia)	GI50 (UACC-257 melanoma)	TGI (UACC-257 melanoma)	GI50 (RXF 393 renal)	TGI (RXF 393 renal)	GI50 (CCRF-CEM leukemia)	TGI (CCRF-CEM leukemia)	GI50 (KM12 colon)	TGI (KM12 colon)
COc1ccc(-c2c3c(N)nc(-c4ccncc4)nc3nc3c2c(C)nn3-c2ccccc2)cc1	4.94 µM	53.5 µM	7.12 µM	> 100 µM	4.36 µM	> 100 µM	24.7 µM	> 100 µM	3.6 µM	19 µM	1.53 µM	> 100 µM	79.9 µM	> 100 µM	2.72 µM	20.6 µM	5.93 µM	> 100 µM	8.55 µM	> 100 µM
O=C1/C(=C\c2c[nH]c3ccccc23)c2ccccc2N1c1c(Cl)cccc1Cl	1.81 µM	3.56 µM	1.74 µM	3.21 µM	1.9 µM	3.56 µM	1.75 µM	3.51 µM	1.58 µM	3.68 µM	2.33 µM	5.16 µM	2.34 µM	4.61 µM	2.02 µM	3.92 µM	2.42 µM	7.23 µM	1.84 µM	3.69 µM
NNC(=O)/C(=C/c1ccc(Cl)cc1Cl)NC(=O)c1ccccc1		> 100 µM		> 100 µM		> 100 µM		> 100 µM		> 100 µM		> 100 µM		> 100 µM		> 100 µM		> 100 µM		> 100 µM
O=C1c2cccnc2C(=O)c2nc3cc(N4CCN(C5CC5)CC4)ccc3nc21	0.238 µM	1.36 µM	1.38 µM	4 µM	0.409 µM	1.94 µM	0.41 µM	1.59 µM	0.383 µM	2.02 µM	0.322 µM	> 20.1 µM	0.479 µM	1.98 µM	0.607 µM	2.61 µM	2.56 µM	9.83 µM	1.25 µM	5.11 µM
COC(C(=O)[O][Ge]([CH3])([CH3])[CH3])c1ccccc1 (centres undefined)	> 100 µM	> 100 µM	> 100 µM	> 100 µM	> 100 µM	> 100 µM	> 100 µM	> 100 µM	> 100 µM	> 100 µM	> 100 µM	> 100 µM	> 100 µM	> 100 µM	> 100 µM	> 100 µM	> 100 µM	> 100 µM	> 100 µM	> 100 µM
CC1(C)CC(=O)c2c(C(F)(F)F)nn(-c3ccc(C(N)=O)c(NC4CCC(OC(=O)CN)CC4)c3)c2C1 (centres undefined)	0.0387 µM	20.1 µM	16.2 µM	> 100 µM	0.038 µM	> 100 µM	0.0593 µM	> 100 µM	0.0731 µM	> 54.2 µM	0.0301 µM	17.6 µM	0.029 µM	0.0972 µM	0.157 µM	28.8 µM	0.0339 µM	> 100 µM	0.0434 µM	> 100 µM
O=C(N/C(=C\c1ccc2c(c1)OCO2)c1nc2ccccc2[nH]1)c1ccccc1		61 µM		> 100 µM		> 100 µM		> 100 µM		> 100 µM		72.3 µM		35.8 µM		81.5 µM		> 89.2 µM		> 100 µM
COc1cccc(-n2ncc3c(N/N=C/c4ccc(C(=O)NCCN(C)C)cc4)ncnc32)c1	2.04 µM	5.96 µM	3.58 µM	8.14 µM	4.73 µM	9.06 µM	3.85 µM	7.93 µM	3.25 µM	6.77 µM	2.29 µM	> 13.9 µM	3.72 µM	7.44 µM	0.496 µM	3.53 µM	4.17 µM	11.2 µM	1.36 µM	4.67 µM
COC(=O)C(=O)C1(CCC(C)=O)c2ccccc2-c2c(C)ccc(C)c21 (centres undefined)		94.1 µM		> 100 µM		> 100 µM		> 100 µM		> 100 µM		61.5 µM		91.8 µM		76.1 µM		> 100 µM		> 100 µM
CCc1ccccc1NC(=O)C(=O)CC(=O)c1sc(Nc2ccccc2)nc1C		> 100 µM		> 100 µM		> 100 µM		> 100 µM		> 100 µM		> 100 µM		> 100 µM		> 100 µM		> 100 µM		> 100 µM
O=c1cc(-c2ccccc2)[nH]c2ccccc12	0.439 µM	> 46.7 µM	2.81 µM	> 100 µM	0.379 µM	> 100 µM	0.458 µM	> 100 µM	0.573 µM	> 100 µM		> 100 µM	> 79.3 µM	> 100 µM	0.996 µM	9.68 µM	0.738 µM	> 100 µM	0.464 µM	> 100 µM
COC(=O)[C@H](C[C@H](Cc1ccccc1)NC(=O)c1csc([C@@H](C[C@H](C(C)C)N(C)C(=O)[C@@H](NC(=O)[C@H]2CCCCN2C)C(C)C)OC(C)=O)n1)NC(=O)OCc1ccccc1	< 0.0009 µM	0.0525 µM	0.00159 µM	> 3.67 µM	< 0.0009 µM	> 9 µM	0.00128 µM	> 9 µM	< 0.0009 µM	> 9 µM	< 0.0009 µM	> 4.29 µM	0.0349 µM	2.78 µM	< 0.0009 µM	> 9 µM	< 0.0009 µM	> 9 µM	< 0.0009 µM	> 9 µM
COc1ccc(/C=C(/C#N)C(N)=O)cc1OC		> 100 µM		> 100 µM		> 100 µM		> 100 µM		> 100 µM		> 100 µM		> 100 µM		> 100 µM		> 100 µM		> 100 µM
COC(=O)[C@@]1(C)CC[C@]2(C)CC[C@]3(C)C4=CC=C5C(=CC(=O)C(O)=C5C)[C@]4(C)[C@@H](O)C[C@@]3(C)[C@@H]2C1	8.39 µM	20 µM	1.79 µM	5.23 µM	9.27 µM	20.2 µM	13.2 µM	28.4 µM	8.71 µM	18.7 µM	2.69 µM	19 µM	10.1 µM	24.3 µM	11.3 µM	22.9 µM	2.73 µM	11.9 µM	13 µM	25.1 µM
Cc1ccccc1[P+](Cc1ccccc1)(c1ccccc1)c1ccccc1	2.09 µM	10.5 µM	4.81 µM	> 100 µM	2.62 µM	33.3 µM	1.75 µM	5.28 µM	1.99 µM	35.2 µM	1.6 µM	15.7 µM	0.623 µM	4.23 µM	4.35 µM	51.8 µM	2.1 µM	33.5 µM	1.12 µM	15.1 µM
COc1cc(C2CC(c3ccc4c(c3)OCO4)=NN2C=O)cc(OC)c1OC (centres undefined)	1.22 µM	> 27.6 µM	5.26 µM	> 100 µM	1.21 µM	> 100 µM	0.735 µM	4.26 µM	4.42 µM	> 100 µM	0.52 µM	> 100 µM	> 20.3 µM	> 100 µM	4.05 µM	22.2 µM	2.48 µM	> 100 µM	1.17 µM	> 100 µM
NCCn1c(=O)[nH]c(=O)[nH]c1=S	> 100 µM	> 100 µM	> 100 µM	> 100 µM	> 100 µM	> 100 µM	> 100 µM	> 100 µM	> 100 µM	> 100 µM	> 100 µM	> 100 µM	> 100 µM	> 100 µM	> 100 µM	> 100 µM	> 100 µM	> 100 µM	> 100 µM	> 100 µM
C=CCOc1cccc(/C=C2\SC(=Nc3ccc(O)cc3)NC2=O)c1	0.406 µM	2.98 µM	1.13 µM	7.89 µM	0.383 µM	> 80.1 µM	0.505 µM	16.6 µM	0.495 µM	12.9 µM	0.108 µM	> 63.7 µM	9.11 µM	> 100 µM	0.302 µM	3.77 µM	0.402 µM	> 100 µM	0.433 µM	8.86 µM
CC[C@@H](C(=O)O)C1CC[C@H](C)C([C@@H](C)[C@H](O)[C@H](C)C(=O)[C@H](CC)C2O[C@]3(C=C[C@@H](O)[C@]4(CC[C@@](C)(C5CC[C@](O)(CC)[C@H](C)O5)O4)O3)[C@H](C)C[C@@H]2C)O1 (some centres undefined)	0.0785 µM	1.78 µM	0.656 µM	7.92 µM	1.33 µM	8.93 µM	0.261 µM	11.1 µM	0.115 µM	10.2 µM	0.0411 µM	14 µM	0.293 µM	5.88 µM	0.289 µM	3.76 µM	0.619 µM	20.5 µM	0.893 µM	11.9 µM
Cc1ccc(NC(=O)C(=O)C(C#N)c2ccccc2C)cc1C (centres undefined)		> 100 µM		> 100 µM		> 61.3 µM		> 100 µM		> 100 µM		> 100 µM		> 100 µM		> 100 µM		> 100 µM		> 100 µM
CC1=C(Oc2ccccc2)C(CCC(=O)O)c2c(O)cc(Cl)c(O)c21 (centres undefined)		> 100 µM		> 100 µM		> 100 µM		> 100 µM		> 100 µM		> 100 µM		> 100 µM		> 100 µM		> 100 µM		> 100 µM
COc1ccc(OC)c(/C=C2\SC(=S)NC2=O)c1	31.4 µM	> 100 µM	30.8 µM	> 100 µM	60.2 µM	> 100 µM	42.8 µM	> 100 µM	41 µM	> 100 µM	37.6 µM	> 100 µM	19.8 µM	61.5 µM	18.4 µM	64.8 µM	42.4 µM	> 100 µM	58.7 µM	> 100 µM
Cc1ccc(-c2cn3ccnc3c(-c3ccc(Cl)cc3)n2)cc1	1.98 µM	> 8.22 µM	0.966 µM	> 59.8 µM	< 0.0217 µM	> 61.2 µM	0.0268 µM	2.33 µM	0.786 µM	18.1 µM	0.0548 µM			> 100 µM	2.16 µM	> 100 µM	0.122 µM	> 100 µM	0.15 µM	16.6 µM
Cc1c(C(=O)C/C(=N\O)C(=O)Nc2cc(Cl)c(Cl)cc2Cl)[n+](=O)c2ccccc2n1[O-]		16.2 µM		> 100 µM		9.74 µM		53.5 µM		31.3 µM		84.4 µM		20.2 µM		68.8 µM		> 100 µM		26.2 µM
COc1ccc(-c2csc(N(C(=O)N3CCN(c4cc5c(cc4F)c(=O)c(C(=O)O)cn5C4CC4)CC3)c3ccccc3)n2)cc1	2.16 µM	6.8 µM	1.15 µM	> 66 µM	4.37 µM	> 100 µM	2.49 µM	8.61 µM	0.973 µM	> 34.3 µM	2.78 µM	> 100 µM	2.35 µM	6.71 µM	0.789 µM	14.8 µM	3.06 µM	> 100 µM	3.41 µM	> 100 µM
CC(CCC(=O)O)[C@H]1CCC2[C@@H]3CC[C@@H]4CC(O)CC[C@]4(C)C3CC[C@@]21C (some centres undefined)	68.1 µM	> 100 µM	49.3 µM	> 100 µM	42.4 µM	> 100 µM			40.2 µM	> 100 µM	23.4 µM	85.4 µM	27.7 µM	> 100 µM	46.9 µM	> 100 µM	21.9 µM	85.3 µM	40.5 µM	> 100 µM
COc1ccc2c(c1)/C(=C\c1c(C)nc3sccn13)C(=O)N2	< 0.01 µM			> 100 µM	< 0.0476 µM	> 100 µM	< 0.0466 µM			> 100 µM	0.0309 µM	0.38 µM			0.722 µM	> 90.4 µM	0.0979 µM	> 100 µM	< 0.0402 µM	25.5 µM
